This is an account of results in US9051591B2, “Bacterium of enterobacteriaceae family producing L-aspartic acid or L-aspartic acid-derived metabolites and a method for producing L-aspartic acid or L-aspartic acid-derived metabolites” (AJINOMOTO CO., INC., priority 2010, dated 2015).

The term Km denotes the concentration of substrate that gives half-maximal velocity. In general, Vmax refers to the top rate of the reaction or transport when substrate is in excess. As a reminder, the kcat is the maximal rate divided by the concentration of active sites. The kcat/Km is the turnover number divided by the Michaelis constant.

The test system of series [1] is ADH1-Rp. Put plainly: Screening of substrate specificity, ADH1-Rp. Particulars: relative to aspartate; 20 mM substrate, 2 mM NADP^+, pH 9.8.
For series [2], the system named is ADH-Re. Put plainly: Screening of substrate specificity, ADH-Re. As to conditions: relative to aspartate; 20 mM substrate, 2 mM NAD^+, pH 9.8.
Series [3] addresses T1, purified ADH (Polaromonas sp.) (Polaromonas sp., UniProt Q126F5).
T1 sequence (Q126F5 1-267): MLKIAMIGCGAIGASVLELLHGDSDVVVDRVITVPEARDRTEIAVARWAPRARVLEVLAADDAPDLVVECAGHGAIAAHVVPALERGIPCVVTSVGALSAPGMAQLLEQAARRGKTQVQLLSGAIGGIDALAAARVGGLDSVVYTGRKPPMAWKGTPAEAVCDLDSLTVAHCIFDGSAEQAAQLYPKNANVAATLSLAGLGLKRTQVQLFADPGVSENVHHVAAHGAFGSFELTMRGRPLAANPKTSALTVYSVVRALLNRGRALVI
Description: Screening of alternative substrates for purified ADH. As to conditions: 10 mM, 1 mM NAD^+, 29° C.

Series [4] has as its system ADH-Bj. Put plainly: Screening of substrate specificity, ADH-Bj. Particulars: relative to aspartate; 20 mM substrate, 2 mM NADP^+, pH 9.8.
In series [5] the target is T2, ADH (Polaromonas sp.) (Polaromonas sp., UniProt Q126F5).
T2 sequence (Q126F5 1-267): T1 sequence (Q126F5 1-267)
Description: Screening of substrate specificity, ADH. As to conditions: relative to aspartate; 20 mM substrate, 2 mM NAD^+, pH 9.8.

The target in series [6] is T3, Polaromonas sp. ADH (Polaromonas sp., UniProt Q126F5).
T3 sequence (Q126F5 1-267): T1 sequence (Q126F5 1-267)
As to conditions: Michaelis-Menten plots.

In series [7] the target is Bradyrhizobium japonicum ADH-Bj (Bradyrhizobium diazoefficiens, UniProt Q89FY1). Put plainly: Kinetic parameters of the Bradyrhizobium japonicum ADH-Bj.
Bradyrhizobium japonicum ADH-Bj, sequence (Q89FY1 other isoform, or with tags, fused parts or gaps): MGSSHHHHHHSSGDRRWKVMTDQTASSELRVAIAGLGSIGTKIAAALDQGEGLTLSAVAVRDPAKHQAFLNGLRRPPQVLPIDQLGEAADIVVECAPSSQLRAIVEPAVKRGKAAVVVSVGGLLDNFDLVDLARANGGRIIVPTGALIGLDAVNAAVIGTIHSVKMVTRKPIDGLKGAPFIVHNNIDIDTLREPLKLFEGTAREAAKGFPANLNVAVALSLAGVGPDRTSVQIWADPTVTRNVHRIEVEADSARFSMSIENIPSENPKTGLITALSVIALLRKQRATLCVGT
Series [8] has as its target T4, Polaromonas sp. aspartate dehydrogenase (Polaromonas sp., UniProt Q126F5).
T4 sequence (Q126F5 1-267): T1 sequence (Q126F5 1-267)
Put plainly: Regulatory properties of the ADH.

Series [9] concerns the target Rhodopseudomonas palustris ADH1-Rp (Rhodopseudomonas palustris, UniProt Q2J3V1). Put plainly: Kinetic parameters of the Rhodopseudomonas palustris AspDH 1.
Series [10] deals with T5, Ralstonia eutropha ADH-Re (Cupriavidus necator, UniProt Q0K391).
T5 sequence (Q0K391 with tags, fused parts or gaps): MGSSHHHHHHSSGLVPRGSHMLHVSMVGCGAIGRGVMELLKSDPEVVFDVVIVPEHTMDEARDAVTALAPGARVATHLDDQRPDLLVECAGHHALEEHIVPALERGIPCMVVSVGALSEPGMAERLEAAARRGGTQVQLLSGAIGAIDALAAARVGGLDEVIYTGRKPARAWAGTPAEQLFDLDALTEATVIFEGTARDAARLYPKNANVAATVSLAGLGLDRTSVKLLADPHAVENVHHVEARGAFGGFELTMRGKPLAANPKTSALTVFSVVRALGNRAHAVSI

Substrate in series [11]: O=C(O)CC(=O)C(=O)O
Put plainly: purified protein, by the assay type. Particulars: other: Oxaloacetate reductive amination; Michaelis-Menten plots.

Substrate in series [12]: NC(=O)c1ccc[n+]([C@@H]2O[C@H](COP(=O)([O-])OP(=O)(O)OC[C@H]3O[C@@H](n4cnc5c(N)ncnc54)[C@H](O)[C@@H]3O)[C@@H](O)[C@H]2O)c1
Put plainly: purified protein, by the assay type. As to conditions: Michaelis-Menten plots.

Substrate in series [13]: N[C@@H](CC(=O)O)C(=O)O
Description: purified protein, by the assay type. As to conditions: other: Aspartate oxidative deamination; Michaelis-Menten plots.

Where [14] appears, read: Aspartic acid oxidative deamination.
Setting [15] is: Aspartate oxidative deamination.
The mark [16] stands for this setting: Oxaloacetate reductive amination, Michaelis-Menten plots.
Where [17] appears, read: Oxaloacetate reductive amination.
Setting [18] is: other: Aspartic acid oxidative deamination.
[19] abbreviates: other: Aspartate oxidative deamination.

Several values for one entry are separate records, joined by “and”; a condition that tells them apart may be missing. Equal values may be shown once. Read-outs that look alike come from different tables or passages of the source.

Rhodopseudomonas palustris ADH1-Rp, sequence (Q2J3V1 entry or part of it): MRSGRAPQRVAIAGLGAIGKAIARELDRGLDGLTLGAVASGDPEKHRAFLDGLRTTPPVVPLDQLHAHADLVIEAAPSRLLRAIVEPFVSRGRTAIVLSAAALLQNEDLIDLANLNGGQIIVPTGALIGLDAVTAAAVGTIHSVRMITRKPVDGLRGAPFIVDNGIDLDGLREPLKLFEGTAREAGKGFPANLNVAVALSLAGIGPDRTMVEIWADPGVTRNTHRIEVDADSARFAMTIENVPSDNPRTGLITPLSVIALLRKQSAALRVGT

On to `C[C@H](N)C(=O)O` [Alanine], for which the “Deamination activity, ADH1-Rp” value in series [1] is on record as “na (no activity (<2%))”. For the same molecule, the “Deamination activity, ADH-Re” value in series [2] is listed as “na (no activity (<2%))”. Moreover, the “ability to replace aspartic acid in reverse reaction” value in series [3] is on record as “No activity”. For the same molecule, the “Deamination activity, ADH-Bj” value in series [4] is reported as “na (no activity (<2%))”. In series [5], the “Deamination activity, ADH” value was “na (no activity (<2%))”.
Regarding `N[C@@H](CC(=O)O)C(=O)O` [Aspartic acid], the “Deamination activity, ADH1-Rp” value in series [1] came out at 100 ± 8%. Also, the Km in series [6] (setting [14]) was 1.3 ± 0.2 mM; in [7] (setting [15]), 27 ± 4 mM; in series [9] (setting [14]), 13.4 ± 0.5 mM. Also, the Vmax in series [6] (setting [14]) turned out to be 26.2 ± 0.9 µmol/min/mg; in [7] (setting [15]), 14.3 ± 0.9 µmol/min/mg; in series [9] (setting [14]) it was 5.61 ± 0.08 µmol/min/mg. Moreover, the kcat in series [6] (setting [14]) was 12 ± 0.333 s⁻¹; in series [7] (setting [15]), 7.33 ± 0.5 s⁻¹; in series [9] (setting [14]) it was 2.87 ± 0.033 s⁻¹. Moreover, the “Deamination activity, ADH-Re” value in series [2] is given as 100%. For the same molecule, in series [4], the “Deamination activity, ADH-Bj” value is listed as 100 ± 11%. For the same molecule, in series [5], the “Deamination activity, ADH” value was determined as 100%. Further, in series [8] (addition of 100 mM), the “decrease of enzyme activity in forward reaction” value was 3 times.
Take `N[C@@H](CCC(=O)O)C(=O)O` [Glutamate]: in [1], the “Deamination activity, ADH1-Rp” value amounted to 4.5 ± 0.4%. The “Deamination activity, ADH-Re” value in series [2] is reported as “na (no activity (<2%))”. In series [3], the “ability to replace aspartic acid in reverse reaction” value is “No activity”. In addition, in series [4], the “Deamination activity, ADH-Bj” value is reported as 5.5 ± 1.1%. Moreover, the “Deamination activity, ADH” value in [5] is reported as “na (no activity (<2%))”. In series [8] (addition of 1 mM, 29° C., pH 9.8), the “effect on ADH activity in forward and reverse reactions” value is listed as “not significantly affected”.
In the case of `Cl.N` [NH4Cl], the Km in series [10] (setting [16]) was 12 mM and 11.9 mM; in series [6] (setting [17]) it was 33 mM; in [7] (setting [17]), 4.3 mM and 4 mM; in series [9] (setting [17]), 11 mM and 11.3 mM. The Vmax was 113 ± 4 µmol/min/mg in [10] (setting [16]), 83 ± 3 µmol/min/mg in [6] (setting [17]), 48 ± 2 µmol/min/mg in [7] (setting [17]) and 20.2 ± 0.6 µmol/min/mg in [9] (setting [17]). Besides, the kcat in series [10] (setting [16]) is 56.67 ± 2 s⁻¹; in series [6] (setting [17]) it was 38 ± 1.33 s⁻¹; in series [7] (setting [17]) it was 24.67 ± 0.833 s⁻¹; in series [9] (setting [17]), 10.3 ± 0.333 s⁻¹. For the same molecule, the “inhibition of the reverse reaction of aspartic acid deamination” value in series [8] (addition of 1 mM) is “did not significantly inhibit”.
Turning to NADPH, the Km in series [10] (amination, summary range over Hill and Michaelis-Menten fits) was in the range of 0.39 to 0.9 mM.

B1: Polaromonas sp. ADH (Polaromonas sp. JS666) (protein)
chain: T1 sequence (Q126F5 1-267)
In the case of B1, in series [11], the Km is 2.2 ± 0.3 mM, the Vmax stood at 74 µmol/min/mg and the kcat was 33.8 ± 1.5 s⁻¹. In series [12] (setting [18]), the Km stood at 0.424 ± 0.010 mM, the Vmax came to 32 µmol/min/mg and the kcat came out at 14.68 ± 0.1 s⁻¹.

B2: Ralstonia eutropha ADH-Re (Cupriavidus necator H16) (protein)
chain: T5 sequence (Q0K391 with tags, fused parts or gaps)
With B2, in series [11], the Km amounted to 3.3 ± 0.4 mM and the kcat came to 58.3 ± 2.33 s⁻¹. For the same molecule, in series [13], the Km was found to be 13 ± 3 mM, the Vmax was 23 µmol/min/mg, the kcat was 11.5 ± 1 s⁻¹ and the kcat/Km turned out to be 833 M⁻¹ s⁻¹. In [12] (setting [19]), the Km is 1.7 ± 0.4 mM, the Vmax was 37 µmol/min/mg and the kcat stood at 18.7 ± 1.5 s⁻¹.
